In assay [1] the test system is PC-3 prostate cancer cell line. Kind of assay: Antiproliferative activity, PC-3. It is filed as cell-based, human. As to the method: (§1) A study was conducted to evaluate the inhibitory activity of compounds of Formula (I) in inhibiting HDAC6, antiproliferative activity of test compounds in suppressing cancer cell growth, and selectivity of inhibiting HDAC6 over other HDAC isoforms.
(§2) The study was performed according to the protocol reported in Hsieh et al., Cell Death and Disease, 2014, April; 5:e1166.
(§3) Shown in Table 2 below are antiproliferative activities (measured by their half maximal concentration for inhibiting cell growth, i.e., GI50) of the test compounds against various cancer cell lines.

For assay [2], the target named is T1, HDAC1 (Homo sapiens, UniProt Q13547).
T1 construct: purchased BPS Bioscience Corp
T1 sequence (Q13547 whole entry): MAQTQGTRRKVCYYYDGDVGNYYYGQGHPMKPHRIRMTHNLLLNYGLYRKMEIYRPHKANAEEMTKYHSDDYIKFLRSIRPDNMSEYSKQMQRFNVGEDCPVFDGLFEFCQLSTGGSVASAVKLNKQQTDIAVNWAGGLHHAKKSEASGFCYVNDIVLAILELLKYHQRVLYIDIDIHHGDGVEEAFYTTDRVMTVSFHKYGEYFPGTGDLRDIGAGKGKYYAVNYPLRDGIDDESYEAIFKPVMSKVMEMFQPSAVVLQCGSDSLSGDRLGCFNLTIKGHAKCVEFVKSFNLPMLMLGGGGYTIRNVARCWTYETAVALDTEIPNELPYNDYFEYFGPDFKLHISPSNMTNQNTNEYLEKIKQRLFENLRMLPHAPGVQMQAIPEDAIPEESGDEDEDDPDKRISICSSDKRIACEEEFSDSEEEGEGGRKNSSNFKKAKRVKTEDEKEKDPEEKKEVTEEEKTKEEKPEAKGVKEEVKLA
Kind of assay: Fluorogenic HDAC assay, HDAC1. In kind it is biochemical. The settings on record: recombinant HDAC1; read-out: Enzyme IC50 HDAC1. From the text: (§4) Of note, there are eighteen human HDACs. Eleven of them, designated as HDAC1-11, are zinc-dependent. Seven of them, designated as Sirt1-7, are NAD+-dependent.
(§5) Fluorogenic HDAC assay kits were used to assess the ability of HDAC inhibitors to inhibit deacetylation of lysine residues on a substrate by recombinant proteins HDAC1, 3, 4, 5, 6, 7, 8, 9 and Sirt1 according to the manufacturer's instructions (BPS Bioscience Corp., San Diego, Calif., USA).

In assay [3] the test system is A549 lung cancer cell line. The assay is described as follows: Antiproliferative activity, A549. In kind it is cell-based, human. How it is done:
as §1, §2, §3

The target in assay [4] is T2, HDAC6 (Homo sapiens, UniProt Q9UBN7).
T2 construct: purchased BPS Bioscience Corp
T2 sequence (Q9UBN7 1-1215): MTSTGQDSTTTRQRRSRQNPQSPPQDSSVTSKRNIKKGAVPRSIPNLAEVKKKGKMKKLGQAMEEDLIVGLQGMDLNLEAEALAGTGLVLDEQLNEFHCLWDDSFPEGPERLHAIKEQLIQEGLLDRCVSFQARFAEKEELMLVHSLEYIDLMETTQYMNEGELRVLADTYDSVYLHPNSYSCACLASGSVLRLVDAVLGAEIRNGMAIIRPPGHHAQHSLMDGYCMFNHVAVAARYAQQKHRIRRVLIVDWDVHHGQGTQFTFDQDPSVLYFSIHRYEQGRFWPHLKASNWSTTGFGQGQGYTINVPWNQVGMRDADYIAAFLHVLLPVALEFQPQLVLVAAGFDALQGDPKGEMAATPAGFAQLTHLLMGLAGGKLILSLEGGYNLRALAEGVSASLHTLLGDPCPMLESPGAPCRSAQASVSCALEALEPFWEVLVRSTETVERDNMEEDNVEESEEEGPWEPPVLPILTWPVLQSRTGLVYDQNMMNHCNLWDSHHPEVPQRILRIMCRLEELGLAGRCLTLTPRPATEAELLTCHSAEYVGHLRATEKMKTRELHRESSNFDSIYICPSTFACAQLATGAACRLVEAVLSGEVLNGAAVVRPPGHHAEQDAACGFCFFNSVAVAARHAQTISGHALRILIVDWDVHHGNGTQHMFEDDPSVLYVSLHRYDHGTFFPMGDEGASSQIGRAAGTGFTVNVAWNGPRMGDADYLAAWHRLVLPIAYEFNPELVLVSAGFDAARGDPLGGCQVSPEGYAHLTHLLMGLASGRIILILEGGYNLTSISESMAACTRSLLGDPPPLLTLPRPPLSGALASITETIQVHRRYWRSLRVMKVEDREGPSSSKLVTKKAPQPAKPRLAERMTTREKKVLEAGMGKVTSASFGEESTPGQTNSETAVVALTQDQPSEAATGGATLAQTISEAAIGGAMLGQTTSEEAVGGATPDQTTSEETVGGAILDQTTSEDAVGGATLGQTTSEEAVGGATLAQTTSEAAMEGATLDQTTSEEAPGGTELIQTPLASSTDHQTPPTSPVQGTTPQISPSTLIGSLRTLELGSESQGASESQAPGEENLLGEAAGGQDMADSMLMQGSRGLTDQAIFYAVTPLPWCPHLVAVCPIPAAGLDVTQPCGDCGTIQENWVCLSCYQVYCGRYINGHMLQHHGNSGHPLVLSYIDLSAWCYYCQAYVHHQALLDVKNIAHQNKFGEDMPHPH
The assay is described as follows: Fluorogenic HDAC assay, HDAC6. In kind it is biochemical. Conditions: recombinant HDAC6; read-out: Enzyme IC50 HDAC6.
Text: as §4, §5

Assay [5] relates to HCT116 colorectal cancer cell line. Kind of assay: Antiproliferative activity, HCT116. In kind it is cell-based. Conditions: Homo sapiens, HCT-116. As to the method: as §1, §2, §3

SMILES strings stand for the structures. Like-named read-outs stand apart in the source and are kept apart here.

Turning to `O=C(NO)c1ccc(CNc2cnc3ccccc3c2)cc1` [Compound 4, N-hydroxy-4-((quinolin-3-ylamino)methyl)benzamide], the concentration for 50% growth inhibition (GI50) in assay [1] (Homo sapiens) stood at 1.62 ± 0.2 µM; in assay [3] (Homo sapiens), 2.73 ± 0.24 µM. Further, the figures for the IC50 in assay [2] and in assay [4] were 0.78 µM and 0.0191 µM, respectively.

Consider `O=C(/C=C/c1ccc(CNc2cnc3ccccc3c2)cc1)NO` [Compound 6, (E)-N-hydroxy-3-(4-((quinolin-3-ylamino)methyl)phenyl)acrylamide], for which the GI50 is 0.38 ± 0.03 µM in assay [1] (Homo sapiens) and 0.71 ± 0.01 µM in assay [3] (Homo sapiens).

On to `O=C(NO)c1ccc(C(=O)Nc2cnc3ccccc3c2)cc1` [Compound 8, N^1-hydroxy-N^4-(quinolin-3-yl)terephthalamide], for which the GI50 in assay [1] (Homo sapiens) and in assay [3] (Homo sapiens) was more than 10 µM in each case.

For `O=C(/C=C/c1ccc(C(=O)Nc2cnc3ccccc3c2)cc1)NO` [Compound 10, (E)-4-(3-(hydroxyamino)-3-oxoprop-1-enyl)-N-(quinolin-3-yl)benzamide], the 50% growth inhibitory concentration (GI50) in assay [1] (Homo sapiens) and in assay [3] (Homo sapiens) was more than 10 µM each time.

`O=C(/C=C/c1ccc(CNc2cccc3ncccc23)cc1)NO` [Compound 14, (E)-N-hydroxy-3-(4-((quinolin-5-ylamino)methyl)phenyl)acrylamide]: the GI50 in assay [1] (Homo sapiens) was 0.62 ± 0.05 µM; in assay [3] (Homo sapiens), 1.25 ± 0.08 µM.

As for `O=C(NO)c1ccc(C(=O)Nc2cccc3ncccc23)cc1` [Compound 16, N1-hydroxy-N4-(quinolin-5-yl)terephthalamide], the GI50 in assay [1] (Homo sapiens) and in assay [3] (Homo sapiens) was more than 10 µM each time.

Regarding `O=C(/C=C/c1ccc(C(=O)Nc2cccc3ncccc23)cc1)NO` [Compound 18, (E)-4-(3-(hydroxyamino)-3-oxoprop-1-enyl)-N-(quinolin-5-yl)benzamide], the GI50 in assay [1] (Homo sapiens) and in assay [3] (Homo sapiens) was more than 10 µM in each case.

Consider `O=C(NO)c1ccc(CNc2ccc3ncccc3c2)cc1` [Compound 20, N-hydroxy-4-((quinolin-6-ylamino)methyl)benzamide], for which the GI50 in assay [1] (Homo sapiens) and in assay [3] (Homo sapiens) was more than 10 µM throughout. Further, the figures for the IC50 in assay [2] and in assay [4] were more than 100 µM and 0.019 µM, respectively.

As to `O=C(/C=C/c1ccc(CNc2ccc3ncccc3c2)cc1)NO` [Compound 22, (E)-N-hydroxy-3-(4-((quinolin-6-ylamino)methyl)phenyl)acrylamide], the GI50 in assay [1] (Homo sapiens) and in assay [3] (Homo sapiens) was more than 10 µM throughout.

Regarding `O=C(NO)c1ccc(C(=O)Nc2ccc3ncccc3c2)cc1` [Compound 24, N^1-hydroxy-N^4-(quinolin-6-yl)terephthalamide], the GI50 in assay [1] (Homo sapiens) and in assay [3] (Homo sapiens) was more than 10 µM in each case.

As to `O=C(/C=C/c1ccc(C(=O)Nc2ccc3ncccc3c2)cc1)NO` [Compound 26, (E)-4-(3-(hydroxyamino)-3-oxoprop-1-enyl)-N-(quinolin-6-yl)benzamide], the GI50 in assay [1] (Homo sapiens) and in assay [3] (Homo sapiens) was more than 10 µM each time.

Consider `O=C(/C=C/c1ccc(CNc2cccc3cccnc23)cc1)NO` [Compound 30, (E)-N-hydroxy-3-(4-((quinolin-8-ylamino)methyl)phenyl)acrylamide], for which the GI50 in assay [1] (Homo sapiens) was 1.25 ± 0.02 µM; in assay [3] (Homo sapiens), 1.11 ± 0.05 µM.

For the compound `O=C(NO)c1ccc(C(=O)Nc2cccc3cccnc23)cc1` [Compound 32, N^1-hydroxy-N^4-(quinolin-8-yl)terephthalamide], the GI50 in assay [1] (Homo sapiens) and in assay [3] (Homo sapiens) was more than 10 µM throughout.

For `O=C(/C=C/c1ccc(C(=O)Nc2cccc3cccnc23)cc1)NO` [Compound 34, (E)-4-(3-(hydroxyamino)-3-oxoprop-1-enyl)-N-(quinolin-8-yl)benzamide], the results for the GI50 in assay [1] (Homo sapiens) and in assay [3] (Homo sapiens) were 3.51 ± 0.18 µM and 4.26 ± 0.07 µM, respectively.

With `O=C(NO)c1cccc(CNc2cccc3cccnc23)c1` [Compound 36, N-hydroxy-3-((quinolin-8-ylamino)methyl)benzamide], the GI50 in assay [1] (Homo sapiens) and in assay [5] was more than 10 µM in each case.

For `O=C(NO)c1cccc(C(=O)Nc2cccc3cccnc23)c1` [Compound 38, M-hydroxy-N^3-(quinolin-8-yl)isophthalamide], the GI50 in assay [1] (Homo sapiens) and in assay [5] was more than 10 µM each time.

With `O=C(NO)c1ccc(CNc2ccc3ccccc3n2)cc1` [Compound 40, N-hydroxy-4-((quinolin-2-ylamino)methyl)benzamide], the GI50 in assay [1] (Homo sapiens) is 0.85 ± 0.09 µM; in assay [5] it was 0.29 ± 0.02 µM.

Regarding `O=C(NO)c1ccc(CNc2ccc3cccnc3c2)cc1` [Compound 42, N-hydroxy-4-((quinolin-7-ylamino)methyl)benzamide], the GI50 in assay [1] (Homo sapiens) turned out to be 2.64 ± 0.14 µM; in assay [5], 0.62 ± 0.03 µM.

Compound `O=C(NO)c1ccc(CNc2ccnc3ccccc23)cc1` [Compound 44, N-hydroxy-4-((quinolin-4-ylamino)methyl)benzamide] came in with a GI50 in assay [5] of 3.28 ± 0.48 µM.

For `O=C(NO)c1ccc(C(=O)NCc2cccc3cccnc23)cc1` [Compound 47, N^1-hydroxy-N^4-(quinolin-8-ylmethyl)terephthalamide], the GI50 in assay [1] (Homo sapiens) was found to be 2.08 ± 0.1 µM; in assay [3] (Homo sapiens), 7.77 ± 0.03 µM.

With `O=C(Cc1ccc(C(=O)Nc2cccc3cccnc23)cc1)NO` [Compound 50, 4-(2-(hydroxyamino)-2-oxoethyl)-N-(quinolin-8-yl)benzamide], the concentration for 50% growth inhibition (GI50) in assay [1] (Homo sapiens) and in assay [3] (Homo sapiens) was more than 10 µM throughout.

In the case of `O=C(NO)c1ccc(CCc2cccc3cccnc23)cc1` [Compound 52, N-hydroxy-4-(2-(quinolin-8-yl)ethyl)benzamide], the values for the GI50 in assay [1] (Homo sapiens) and in assay [5] were 9.66 ± 0.07 µM and 3.05 ± 0.09 µM, respectively.

`O=C(NO)c1ccc(CNc2cccc3cnccc23)cc1` [Compound 54, N-hydroxy-4-((isoquinolin-5-ylamino)methyl)benzamide]: the GI50 turned out to be 6.06 ± 0.4 µM in assay [1] (Homo sapiens) and 4.64 ± 0.25 µM in assay [3] (Homo sapiens).

Turning to `O=C(NO)c1ccc(CNc2cccc3ccncc23)cc1` [Compound 56, N-hydroxy-4-((isoquinolin-8-ylamino)methyl)benzamide], the GI50 in assay [1] (Homo sapiens) was 4.91 ± 0.24 µM; in assay [3] (Homo sapiens), 1.76 ± 0.21 µM.

For `Cc1ccc2cccc(NCc3ccc(C(=O)NO)cc3)c2n1` [Compound 68, N-hydroxy-4-(((2-methylquinolin-8-yl)amino)methyl)benzamide], the GI50 in assay [1] (Homo sapiens) turned out to be 4.45 ± 0.92 µM; in assay [3] (Homo sapiens) it was 5.89 ± 0.42 µM. Further, the IC50 in assay [2] is 1.69 µM; in assay [4], 0.0121 µM.

For the compound `O=C(NO)c1ccc(COc2cccc3cccnc23)cc1` [Compound 71, N-hydroxy-4-((quinolin-8-yloxy)methyl)benzamide], the values for the GI50 in assay [1] (Homo sapiens) and in assay [3] (Homo sapiens) were 6.23 ± 0.32 µM and 7.81 ± 1.17 µM, respectively. Besides, the half-inhibitory concentration (IC50) in assay [4] worked out at 0.011 µM.

Take `O=C(NO)c1ccc(CSc2cccc3cccnc23)cc1` [Compound 73, N-hydroxy-4-((quinolin-8-ylthio)methyl)benzamide]: the GI50 in assay [1] (Homo sapiens) was determined as 4.29 ± 0.7 µM; in assay [3] (Homo sapiens), 6.11 ± 0.69 µM. For the same compound, the results for the IC50 in assay [2] and in assay [4] were 2.2 µM and 0.0234 µM, respectively.

Consider `O=C(NO)c1ccc(NCc2cccc3cccnc23)cc1` [Compound 75, N-hydroxy-4-(quinolin-8-ylmethylamino)benzamide], for which the GI50 is more than 10 µM in assay [1] (Homo sapiens) and 6.32 ± 0.92 µM in assay [3] (Homo sapiens). For the same compound, the values for the IC50 in assay [2] and in assay [4] were 2.04 µM and 0.011 µM, respectively.

For the compound `CN1CCc2c(c3ccccc3n2Cc2ccc(C(=O)NO)cc2)C1` [Tubastatin A, reference compound], the GI50 in assay [1] is 48.19 ± 0.43 µM; in assay [3], 52.2 ± 1.28 µM.

Source of the values: patent publication US11427544B2, “Histone deacetylase 6 inhibitors and use thereof” (TAIPEI MEDICAL UNIVERSITY, priority 2016, dated 2022).
